Activity calls are given as the source filed them. The calls are words filed in the database; no cut-off is given here.

In test [1] the test system is LNCaP. The experiment in a line: Induction of apoptosis in human LNCAP cells assessed as p21(Cip1) expression at 6 uM by western blotting analysis. Type of test: functional, cell-based.
The subject of test [2] is LNCaP. The experiment in a line: Induction of apoptosis in human LNCAP cells assessed as caspase3 level at 6 uM by western blot analysis. Type of test: functional, cell-based.
Test [3] concerns LNCaP. Briefly: Induction of apoptosis in human LNCAP cells assessed as cleaved PARP level at 6 uM by western blot analysis. Type of test: functional, cell-based.
Test [4] is described as follows: Cell cycle distribution in human LNCaP C4-2 cells assessed as accumulation at sub-G1 phase at 9 uM for 48 hrs in presence of 100 uM AR inhibitor flutamide by propidium-iodide staining based flow cytometry. Type of test: functional.
Test [5] is described as follows: Cell cycle distribution in human LNCaP C4-2 cells assessed as accumulation at sub-G1 phase at 9 uM after 48 hrs by propidium iodide staining based flow cytometry. It is filed as functional.
Test [6] deals with LNCaP. The experiment in a line: Induction of apoptosis in human LNCaP C4-2 cells assessed as increase p21(Cip1) mRNA level at 9 uM by semiquantitative RT-PCR technique relative to control. It is filed as functional.
Test [7] concerns LNCaP. The experiment in a line: Induction of apoptosis in human LNCaP C4-2 cells assessed as increase in cleaved PARP level at 9 uM after 48 hrs in presence of 100 uM AR inhibitor flutamide by western blot analysis. Type of test: functional, cell-based.
Test [8] concerns LNCaP. Briefly: Induction of apoptosis in human LNCaP C4-2 cells assessed as increase in cleaved PARP level at 9 uM after 48 hrs by western blot analysis. It is filed as functional, cell-based.
For test [9], the system named is LNCaP. Briefly: Induction of apoptosis in human LNCaP C4-2 cells assessed as increase in caspase3 level at 9 uM after 48 hrs in presence of 100 uM AR inhibitor flutamide by western blot analysis. Type of test: functional, cell-based.
Test [10] has as its system LNCaP. The experiment in a line: Induction of apoptosis in human LNCaP C4-2 cells assessed as increase in caspase3 level at 9 uM after 48 hrs by western blotting analysis. It is filed as functional, cell-based.
In test [11] the test system is LNCaP. Briefly: Induction of apoptosis in human LNCaP C4-2 cells assessed as increase in p21(Cip1) expression at 9 uM after 48 hrs in presence of 100 uM AR inhibitor flutamide by western blotting analysis. Type of test: functional, cell-based.
For test [12], the system named is LNCaP. The experiment in a line: Induction of apoptosis in human LNCaP C4-2 cells assessed as increase in p21(Cip1) expression at 9 uM after 48 hrs by western blotting analysis. Type of test: functional, cell-based.
Test [13] has as its system LNCaP. The experiment in a line: Antiproliferative activity against human LNCaP C4-2 cells assessed as cell viability at 9 uM after 48 hrs by MTT assay. It is filed as functional, cell-based.
Test [14] has as its system LNCaP. The experiment in a line: Antiproliferative activity against human LNCaP C4-2 cells assessed as cell viability at 6 uM after 48 hrs by MTT assay. Type of test: functional, cell-based.
Test [15] has as its system LNCaP. Briefly: Antiproliferative activity against human LNCaP C4-2 cells assessed as cell viability at 6 uM after 24 hrs by MTT assay. Type of test: functional, cell-based.
Test [16] has as its system LNCaP. Briefly: Antiproliferative activity against human LNCAP cells assessed as cell viability at 6 uM after 24 hrs by MTT assay. Type of test: functional, cell-based.
For test [17], the system named is LNCaP. The experiment in a line: Cell cycle distribution in human LNCAP cells assessed as accumulation at sub-G1 phase at 6 uM after 24 hrs in presence of 100 uM AR inhibitor flutamide by propidium-iodide staining based flow cytometry. It is filed as functional.
The subject of test [18] is LNCaP. The experiment in a line: Induction of apoptosis in human LNCAP cells assessed as p21(Cip1) mRNA level at 6 uM in presence of 100 uM AR inhibitor flutamide by semiquantitative RT-PCR technique relative to control. It is filed as functional.
In test [19] the test system is LNCaP. The experiment in a line: Induction of apoptosis in human LNCAP cells assessed as caspase-3 expression at 6 uM after 24 hrs cell pretreated with 100 uM AR inhibitor flutamide by western blot analysis. Type of test: functional, cell-based.
Test [20] relates to LNCaP. Briefly: Induction of apoptosis in human LNCAP cells assessed as increase in p21(Cip1) mRNA level at 6 uM by semiquantitative RT-PCR technique relative to control. It is filed as functional.
Test [21] deals with LNCaP. The experiment in a line: Induction of apoptosis in human LNCAP cells assessed as cleaved PARP expression at 6 uM after 24 hrs cell pretreated with 100 uM AR inhibitor flutamide by western blot analysis. It is filed as functional, cell-based.
For test [22], the system named is LNCaP. The experiment in a line: Induction of apoptosis in human LNCAP cells assessed as caspase-9 expression at 6 uM after 24 hrs cell pretreated with 100 uM AR inhibitor flutamide by western blot analysis. Type of test: functional, cell-based.
For test [23], the system named is LNCaP. Briefly: Induction of apoptosis in human LNCAP cells assessed as caspase-8 expression at 6 uM after 24 hrs cell pretreated with 100 uM AR inhibitor flutamide by western blot analysis. Type of test: functional, cell-based.
Test [24] deals with LNCaP. The experiment in a line: Induction of apoptosis in human LNCAP cells assessed as p21(Cip1) expression at 6 uM after 24 hrs cell pretreated with 100 uM AR inhibitor flutamide by western blot analysis. Type of test: functional, cell-based.
In test [25] the test system is DU-145. Briefly: Induction of apoptosis in human DU145 cells assessed as DNA fragmentation at 6 uM after 48 hrs in presence of 5 mM autophagy inhibitor 3-methyladenine by TUNEL assay. It is filed as functional, cell-based.
Test [26] has as its system DU-145. The experiment in a line: Induction of apoptosis in human DU145 cells assessed as increase in cleaved PARP level at 6 uM after 48 hrs by western blotting analysis. Type of test: functional, cell-based.
Test [27] deals with DU-145. The experiment in a line: Induction of apoptosis in human DU145 cells assessed as increase in p21(Cip1) expression at 6 uM after 48 hrs by western blotting analysis. It is filed as functional, cell-based.
For test [28], the system named is DU-145. The experiment in a line: Induction of apoptosis in human DU145 cells assessed as accumulation of autophagic vacuoles in cytoplasm at 6 uM after 24 hrs by fluorescence microscopic analysis. It is filed as functional, cell-based.
In test [29] the test system is LNCaP. Briefly: Induction of apoptosis in human LNCAP cells assessed as increase in cleaved PARP level at 6 uM after 24 hrs by western blotting analysis. Type of test: functional, cell-based.
Test [30] relates to DU-145. The experiment in a line: Induction of apoptosis in human DU145 cells assessed as cleaved PARP level at 6 uM after 24 hrs by western blotting analysis. It is filed as functional, cell-based.
In test [31] the test system is DU-145. Briefly: Induction of apoptosis in human DU145 cells assessed as active caspase-3 level at 6 um after 24 hrs by western blotting analysis. It is filed as functional, cell-based.
Test [32] deals with LNCaP. The experiment in a line: Induction of apoptosis in human LNCAP cells assessed as increase active caspase3 level at 6 uM after 24 hrs by western blotting analysis. It is filed as functional, cell-based.
In test [33] the test system is LNCaP. The experiment in a line: Induction of apoptosis in human LNCAP cells assessed as increase in p21(Cip1) expression at 6 uM after 24 hrs by western blotting analysis. It is filed as functional, cell-based.
For test [34], the system named is DU-145. Briefly: Induction of apoptosis in human DU145 cell assessed as p21(Cip1) expression at 6 uM after 24 hrs by western blotting analysis. Type of test: functional, cell-based.
Test [35] relates to DU-145. Briefly: Induction of apoptosis in human DU145 cells assessed as formation of crescent shaped apoptotic bodies at 6 uM after 24 hrs by transmission electron microscopic analysis. Type of test: functional, cell-based.
Test [36] deals with LNCaP. Briefly: Induction of apoptosis in human LNCAP cells assessed as formation of crescent shaped apoptotic bodies at 6 uM after 24 hrs by transmission electron microscopic analysis. It is filed as functional, cell-based.
The subject of test [37] is DU-145. The experiment in a line: Induction of apoptosis in human DU145 cells assessed as chromatin condensation at 6 uM after 24 hrs by transmission electron microscopic analysis. Type of test: functional, cell-based.
For test [38], the system named is LNCaP. Briefly: Induction of apoptosis in human LNCAP cells assessed as chromatin condensation at 6 uM after 24 hrs by transmission electron microscopic analysis. It is filed as functional, cell-based.

Take `NC(=O)c1c(Br)n(C2CCCC2)c2ncnc(N)c12`: the outcome in test [1], in test [2] and in test [3] was inactive.

Consider `NC(=O)c1c(Br)nc2n(C3CCCC3)cnc(N)c1-2`, for which the result in [4], in [7], in test [8], in test [9], in [10] and in [11] was Active. Further, the result in [12], in test [13], in test [14], in test [16], in test [26] and in test [27] was Active. Further, the result in [28], in test [29], in test [32], in [33], in [36] and in test [38] was Active. Further, the Activity in [5] is 30%. Further, the “fold change (FC)” value in test [6] stood at 23; in [18] it was 0.38; in test [20], 56.98. Moreover, the result in [15], in test [17], in [19], in test [21], in [22] and in [23] was inactive. The outcome in [24], in test [25], in [30], in [31], in [34] and in test [35] was inactive. Besides, the result in test [37] was inactive.

(Values after ChEMBL document CHEMBL3758118, “Effects of a novel carbocyclic analog of pyrrolo[2,3-d]pyrimidine nucleoside on pleiotropic induction of cell death in prostate cancer cells with different androgen responsiveness” (2016).)
